{"source": "patent US20210163964A1", "about": "“ENGINEERED STREPTOMYCES ALBUS STRAINS” (University of Florida Research Foundation, Incorporated, priority 2018, published 2021)", "system": "S. albus J1074 and the Δpfk-derivative strain", "test": "Diamide sensitivity disc assay", "type": "cell-based, Streptomyces albus J1074", "details": "100 mM diamide disc; ΔpfkSA mutant relative to wild type S. albus J1074; R5A plates, 30° C., 24 h", "description": "Lawns of S. albus J1074 wild-type and Δpfk mutant were generated by overlaying R5A plates (sucrose 100 g/l, K2SO4 0.25 g/l, MgCl2 10.12 g/l, glucose 10 g/l, Casamino acids 0.1 g/l, yeast extract 5 g/l, MOPS 21 g/l, NAOH 2 g/l, R2YE trace elements 2 ml/l, 15 g/L agar) with 3 ml soft Nutrient Agar containing 10^7 fresh spores. Immediately after plating, paper discs soaked in 100 mM diamide were added and plates were incubated at 30° C. for 24 h.", "data": [{"smiles": "CN(C)C(=O)/N=N/C(=O)N(C)C", "note": "[diamide]", "values": [{"measurement": "sensitivity to diamide (halo around disc)", "result": "less sensitive"}]}]}
